Legend:
[1] = system: permanent 2-VO rats (chronic cerebral hypoperfusion); experiment: Morris water maze in permanent 2-VO (BCCAO) rats; type: in vivo, rat; conditions: Piracetam 600 mg/kg
Text: Chronic cerebral hypoperfusion was proceeded by a permanent, bilateral occlusion of the common carotid arteries (2-VO) of adult rats. The rats were anesthetized with 10% trichloro-acetaldehyde, and temperature probe was inserted into the rectum, and a separate heating lamp was used to maintain rectal temperature at normothermic level. After a midline neck skin incision, the common carotid artery were exposed and ligated by a 5-0 nylon suture.
Rats were randomly divided into six experimental groups (20 rats/each group): one sham-operated group, one vehicle control group, one piracetam-treated group (600 mg/kg), and three dl-PHPB-treated groups (13, 39, and 129 mg/kg). In 10 days after onset of 2-VO, drugs and vehicle were administered orally to rats for 21 days (one time/each day). The spatial learning and memory capability of rats were detected by Morris water maze in the 25-30 days after operation. The Morris water test was commenced at 40 min after drugs treated. The biochemical and pathology assays were conducted later (in 24 h) after behavioral tests.
Subjects were tested in a Morris water maze. This test is based on a standardized assessment of spatial learning ability. The water maze apparatus consisted of a circular, stainless pool (120 cm in diameter, 60 cm in height). It was placed in a dimly lit, sound-proof test room. Multiple distant cues around the room (window, cabinets, furniture) were kept in the same location throughout the experiments. The water was filled to a depth of 40 cm at 25±1° C. and was made opaque by adding milk powder to prevent visualization of the platform. A transparent platform (10 cm diameter) was put 1.5 cm below the surface of the water. The tank was divided into four quadrants with the platform in a fixed position in one quadrant. The subjects were placed into the maze facing the pool wall and were allowed two trials per day, 60 s per trial, to find the hidden platform. If the subject found the platform within the 60 s, it was given a 10-s rest period on the platform between trials. If the pedestal was not located within the time allotted, the subject was placed on to the platform and allowed 10 s until the next trial. The escape latency (time to reach the platform) was used to assess acquisition of the water maze task. Sessions were repeated for five consecutive days. On the sixth day, the platform was removed and the rat was allowed to search for the platform for 60 s (probe test). The time in the platform quadrant and latency time to cross platform location were recorded to measure the spatial learning ability without the influence of chance encounters with the platform. The Morris water maze sessions were recorded with a video camera for offline analysis.

[2] = system: GFAP; experiment: GFAP immunohistochemistry, activated astrocytes of 2-VO rats; type: in vivo, rat
Procedure: The method for tissue fixation was described above. Serial coronal sections (40 μm) of the brains were cut through the dorsal hippocampus on a freezing microtome and collected in 6-well plates containing 0.01 M PBS. The detection of GFAP and BDNF immunoreactivity was performed using a conventional avidin-biotin-immunoperoxidease technique.
For quantitative analysis, one from every five samples in a continuous series of hippocampal or cortical tissue sections was taken, and was processed immunohistochemically. Thus, three slides were taken from each rat, and were read under an objective (×1.6) microscope. The total area of positively stained neurons was counted with Image-pro Plus 5.0 software.
Cerebral damage caused by hypoperfusion may be the basis for spatial learning and memory impairment, including earliest white matter damage, accompanied by an increase of astrocytes and microglia activation. Glial fibrillary acidic protein (GFAP) immunohistochemical staining can be used to label the activated astrocytes. 2-3 photos were taken from each selected slices in the same regions. The number of the GFAP positive astrocytes was calculated as the average value of the region. Four anatomical regions were selected to observe: the cortex, hippocampus, corpus callosum and optic tract.

[3] = 1st of 5 M/R/T/L column groups (day not printed)
[4] = 2nd of 5 M/R/T/L column groups (day not printed)
[5] = 3rd of 5 M/R/T/L column groups (day not printed)
[6] = 4th of 5 M/R/T/L column groups (day not printed)
[7] = 5th of 5 M/R/T/L column groups (day not printed)

NC(=O)CN1CCCC1=O [Piracetam, reference compound]
search strategy times, linear mode (L) [1, 3]: 1 | search strategy times, marginal mode (M) [1, 3]: 10 | search strategy times, random mode (R) [1, 3]: 15 | search strategy times, tendency mode (T) [1, 3]: 14 | search strategy times, linear mode (L) [1, 4]: 8 | search strategy times, marginal mode (M) [1, 4]: 3 | search strategy times, random mode (R) [1, 4]: 11 | search strategy times, tendency mode (T) [1, 4]: 17 | search strategy times, linear mode (L) [1, 5]: 10 | search strategy times, marginal mode (M) [1, 5]: 1 | search strategy times, random mode (R) [1, 5]: 6 | search strategy times, tendency mode (T) [1, 5]: 23 | search strategy times, linear mode (L) [1, 6]: 10 | search strategy times, marginal mode (M) [1, 6]: 1 | search strategy times, random mode (R) [1, 6]: 7 | search strategy times, tendency mode (T) [1, 6]: 23 | search strategy times, linear mode (L) [1, 7]: 19 | search strategy times, marginal mode (M) [1, 7]: 1 | search strategy times, random mode (R) [1, 7]: 8 | search strategy times, tendency mode (T) [1, 7]: 12 | GFAP-positive cells in the optic tract ([2]; Piracetam, 21 days): significantly less than the vehicle group | GFAP-positive cells in the hippocampus ([2]; administration of 21 days, P<0.05 or P<0.01): significantly less than in the vehicle group | GFAP-positive cells in the cortex ([2]; administration of 21 days, in particular dl-PHPB 39 mg/kg (P<0.01)): significantly less than in the vehicle group
